Source: patent publication US20090253687A1, “Fused Heterocyclic Compounds and Their Use as Mineralocorticoid Receptor Ligands” (priority 2005, published 2009)

Biological target: T1, Human Mineralocorticoid Receptor (hMR) (Homo sapiens, UniProt P08235)
T1 construct: Full-length cDNA was constructed from two fragments of hMR cDNA amplified separately; expressed in transfected cells; host or cells: FreeStyle 293 cells transiently transfected with pMCMVneo-hMR; supernatant of the freeze-thaw lysate after ultracentrifugation
T1 sequence (P08235 1-984): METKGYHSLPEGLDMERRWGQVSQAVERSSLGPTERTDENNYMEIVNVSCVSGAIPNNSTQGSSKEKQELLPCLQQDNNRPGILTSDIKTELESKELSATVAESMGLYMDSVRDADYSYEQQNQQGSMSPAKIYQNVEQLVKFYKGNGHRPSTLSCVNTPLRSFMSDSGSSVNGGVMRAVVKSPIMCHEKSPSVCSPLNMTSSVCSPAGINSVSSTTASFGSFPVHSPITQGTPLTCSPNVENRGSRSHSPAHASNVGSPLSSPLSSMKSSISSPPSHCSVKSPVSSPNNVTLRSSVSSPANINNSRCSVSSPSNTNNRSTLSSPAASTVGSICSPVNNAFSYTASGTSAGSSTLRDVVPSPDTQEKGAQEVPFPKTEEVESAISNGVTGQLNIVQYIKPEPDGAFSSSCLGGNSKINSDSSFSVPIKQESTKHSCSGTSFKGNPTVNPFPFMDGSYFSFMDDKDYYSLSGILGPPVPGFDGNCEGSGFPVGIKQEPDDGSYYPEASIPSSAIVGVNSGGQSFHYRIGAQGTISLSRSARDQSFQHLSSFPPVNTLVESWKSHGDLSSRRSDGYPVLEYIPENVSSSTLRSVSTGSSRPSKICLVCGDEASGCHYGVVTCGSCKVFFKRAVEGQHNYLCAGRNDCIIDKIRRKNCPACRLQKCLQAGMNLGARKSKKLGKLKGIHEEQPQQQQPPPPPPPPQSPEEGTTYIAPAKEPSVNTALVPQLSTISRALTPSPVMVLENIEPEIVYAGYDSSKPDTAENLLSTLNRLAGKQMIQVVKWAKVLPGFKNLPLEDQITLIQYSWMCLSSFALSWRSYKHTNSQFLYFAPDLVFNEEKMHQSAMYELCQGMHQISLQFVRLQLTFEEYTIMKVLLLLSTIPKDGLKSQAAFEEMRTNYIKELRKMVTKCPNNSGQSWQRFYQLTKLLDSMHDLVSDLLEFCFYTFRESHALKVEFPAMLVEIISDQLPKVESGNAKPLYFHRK
Assay: Inhibition of binding of [3H]-aldosterone to hMR (lysate of FreeStyle 293 cells expressing hMR)
Conditions: compound at 10^−5 M; 10 nM [3H]-aldosterone; hMR lysate 1.0 mg/ml; 16 hr at 4° C.; read-out: Inhibition rate (at 10^−5 M)
Experimental: The following procedures described in this Example were carried out according to the methods described in Molecular Cloning—Cold Spring Harbor Laboratory (1989) or protocols specified by manufacturers. (1) Cloning of Human Mineralocorticoid Receptor (hMR) cDNA hMR cDNA was amplified by polymerase chain reaction (PCR) from human kidney cDNA library. Full-length cDNA was constructed from two fragments of hMR cDNA amplified separately. The primers were designed referring to the nucleotide sequence of hMR cDNA reported by Arriza et. al (Science 1987; 237: 268-275). The PCR reactions were carried out using Pyrobest® DNA polymerase (Takara). The PCR products were electrophoresed in agarose gel, and 1.7 kb (region (i)) and 1.5 kb (region (ii)) DNA fragments were recovered. Each DNA fragment was inserted into pCR®4Blunt-TOPO® vector (Invitrogen). The resulting plasmids thus obtained were designated as pB-hMR (i) and pB-hMR (ii). To obtain the full-length hMR cDNA, pB-hMR (i) was digested with XhoI and PvuI, and pB-hMR (ii) was digested with PvuI and KpnI, respectively, and the two cDNA fragments were ligated into pBlueScript®IISK+ vector (Stratagene). The resulting plasmid thus obtained was designated as pB-hMR. (2) Construction of hMR Expression Plasmid pMCMVneo (described in WO03/099793) was digested with XhoI and KpnI, and 5.6 kb fragment was ligated with 2.9 kb hMR cDNA fragment obtained by digestion of pB-hMR (described in above (1)) with XhoI and KpnI. The plasmid thus obtained was designated as pMCMVneo-hMR. (3) Expression of hMR in FreeStyle 293 Cells and Preparation of Cell Lysate FreeStyle 293 cells were inoculated at 1×10^8 cells in 93 ml FreeStyle™ 293 Expression Medium (Invitrogen) in a 500 ml Erlenmeyer flask and cultured at 37° C. under 8% CO2 for 1 hr. The cells were treated with 6.7 ml of the transfection mixture containing 100 μg of pMCMVneo-hMR obtained in above (2) and 133 μl of FreeStyle™ 293 Transfection Reagent (Invitrogen). The transfected cells were cultivated for 48 hr at 37° C. in 8% CO2 atmosphere. The cultivated cells were centrifuged and washed with TEG buffer (10 mM Tris-HCl (pH 7.2), 50 mM EDTA, 10% glycerol), and resuspended in 10 ml TEGM buffer (10 mM Tris-HCl (pH 7.2), 1 mM EDTA, 10% glycerol, 1 mM β-mercaptoethanol, 10 mM sodium molybdate, 1 mM dithiothreitol, 2 tablets/100 ml of protease inhibitor cocktail tablets (Roche)). The cell suspension was frozen with liquid nitrogen and thawed on ice, and ultra-centrifuged at 225,000×g for 20 min at 4° C. The supernatant fraction including hMR (hMR lysate) was collected and stored at −80° C. (4) Measurement of Inhibition Activity Against Binding of hMR and Aldosterone [^3H]-Aldosterone (Amersham Biosciences) as ligand was added at 10 nM to the reaction mixture including test compound at various concentration and hMR lysate (1.0 mg/ml) obtained in above (3) and mixture was filled up to 50.5 μl with TEGM buffer. The reaction mixture was incubated for 16 hr at 4° C. and 35 μl of dextran/gelatin coated charcoal suspension (5% charcoal, 0.5% dextran T-70 (Amersham Biosciences), 0.1% gelatin (SIGMA), 10 mM Tris HCl (pH 7.2), 1 mM EDTA) was added thereto to separate bound and free radioactive aldosterone. The mixture containing charcoal was incubated for 10 min at 4° C. and centrifuged at 910×g for 10 min at 4° C. Radioactivity in 30 μl of the supernatant was measured by TopCount™ (Packard). For the determination of nonspecific binding, cold Aldosterone instead of drug was added to reaction mixture at 100 μM. Specific binding was determined by subtracting nonspecific binding from total binding.

Structure (SMILES)	inhibition at 10 µM [%]
CCCC1Sc2nncn2N=C1c1ccc2c(c1)NC(=O)CO2 (stereo not shown) [Example 31, 6-(7-Propyl-7H-[1,2,4]triazolo[3,4-b][1,3,4]thiadiazin-6-yl)-2H-1,4-benzoxazin-3(4H)-one]	≥ 70
O=C1COc2ccc(C3=Nc4ccccc4OC3c3ccccc3)cc2N1 (stereo not shown) [Example 18, 2-Phenyl-2H,2′H-3,6′-bi-1,4-benzoxazin-3′(4′H)-one]	≥ 70
O=C1COc2ccc(C3=Nn4cnnc4SC3c3ccccc3Cl)cc2N1 (stereo not shown) [Example 34, 6-[7-(2-chlorophenyl)-7H-[1,2,4]triazolo[3,4-b][1,3,4]thiadiazin-6-yl]-2H-1,4-benzoxazin-3(4H)-one]	≥ 70
Cc1cc(F)ccc1-n1nc(C(F)(F)F)cc1-c1cc(F)c2c(c1)NC(=O)CO2 [Example 108, 8-fluoro-6-(1-(4-fluoro-2-methylphenyl)-3-(trifluoromethyl)-1H-pyrazol-5-yl)-2H-benzo[b][1,4]oxazin-3(4H)-one]	≥ 70
NC1=NC=C(c2ccc3c(c2)NC(=O)CO3)C(c2ccccc2)S1 (stereo not shown) [Example 24, 6-(2-amino-6-phenyl-6H-1,3-thiazin-5-yl)-2H-1,4-benzoxazin-3(4H)-one]	≥ 70
Cc1nn(C)c(-c2ccc3c(c2)NC(=O)CO3)c1-c1ccccc1 [Example 288, 6-(1,3-dimethyl-4-phenyl-1H-pyrazol-5-yl)-2H-benzo[b][1,4]oxazin-3(4H)-one]	≥ 70
O=C1COc2ccc(C3=Cn4ccnc4SC3c3ccccc3)cc2N1 (stereo not shown) [Example 26, 6-(7-Phenyl-7H-imidazo[2,1-b][1,3]thiazin-6-yl)-2H-1,4-benzoxazin-3(4H)-one]	≥ 70
O=C1COc2ccc(-c3cc(C(F)(F)C(F)(F)F)nn3-c3ccc(F)cc3)cc2N1 [Example 100, 6-(1-(4-Fluorophenyl)-3-(perfluoroethyl)-1H-pyrazol-5-yl)-2H-benzo[b][1,4]oxazin-3(4H)-one]	≥ 70
O=C1COc2ccc(C3=Cc4ccccc4SC3c3ccccn3)cc2N1 (stereo not shown) [Example 44, 6-(2-Pyridin-2-yl-2H-thiochromen-3-yl)-2H-1,4-benzoxazin-3(4H)-one]	≥ 70
O=C1COc2ccc(C3=Cc4ccccc4SC3c3ccc(F)cc3)cc2N1 (stereo not shown) [Example 158, 6-[2-(4-fluorophenyl)-2H-thiochromen-3-yl]-2H-1,4-benzoxazin-3(4H)-one]	≥ 70
O=C1COc2ccc(C3=Nn4cnnc4SC3c3ccccc3)cc2N1 (stereo not shown) [Example 3, 6-(7-phenyl-7H-[1,2,4]triazolo[3,4-b][1,3,4]thiadiazin-6-yl)-2H-1,4-benzoxazin-3(4H)-one]	≥ 70
Cc1cc(F)ccc1-n1nc(C(F)(F)F)cc1-c1cc(C)c2c(c1)NC(=O)CO2 [Example 110, 6-(1-(4-fluoro-2-methylphenyl)-3-(trifluoromethyl)-1H-pyrazol-5-yl)-8-methyl-2H-benzo[b][1,4]oxazin-3(4H)-one]	≥ 70
O=C1COc2ccc(C3=Cc4ccccc4SC3c3ccccc3)cc2N1 (stereo not shown) [Example 20, 6-(2-Phenyl-2H-thiochromen-3-yl)-2H-1,4-benzoxazin-3(4H)-one]	≥ 70
O=C1COc2ccc(-c3cc(C(F)(F)F)nn3-c3ccccc3)cc2N1 [Example 96, 6-(1-Phenyl-3-(trifluoromethyl)-1H-pyrazol-5-yl)-2H-benzo[b][1,4]oxazin-3(4H)-one]	≥ 70
Cc1ccc(C)c(-n2nc(C(F)(F)F)cc2-c2ccc3c(c2)NC(=O)CO3)c1 [Example 93, 6-(1-(2,5-dimethylphenyl)-3-(trifluoromethyl)-1H-pyrazol-5-yl)-2H-benzo[b][1,4]oxazin-3(4H)-one]	≥ 70
Cc1cc(F)ccc1-n1nc(C(C)(F)F)cc1-c1cc(C)c2c(c1)NC(=O)CO2 [Example 310, 6-(3-(1,1-Difluoroethyl)-1-(4-fluoro-2-methylphenyl)-1H-pyrazol-5-yl)-8-methyl-2H-benzo[b][1,4]oxazin-3(4H)-one]	≥ 70
Cc1cc(Cl)ccc1-n1nc(C(F)(F)F)cc1-c1ccc2c(c1)NC(=O)CO2 [Example 86, 6-(1-(4-chloro-2-methylphenyl)-3-(trifluoromethyl)-1H-pyrazol-5-yl)-2H-benzo[b][1,4]oxazin-3(4H)-one]	≥ 70
O=C1COc2ccc(-c3cc(C(F)(F)F)nn3-c3ccc(F)cc3)cc2N1 [Example 71, 6-(1-(4-Fluorophenyl)-3-(trifluoromethyl)-1H-pyrazol-5-yl)-2H-benzo[b][1,4]oxazin-3(4H)-one]	≥ 70
Cc1cc(F)ccc1-n1nc(C(F)(F)F)cc1-c1cc(C)c2c(n1)NC(=O)CO2 [Example 255, 6-[1-(4-fluoro-2-methylphenyl)-3-(trifluoromethyl)-1H-pyrazol-5-yl]-8-methyl-2H-pyrido[3,2-b][1,4]oxazin-3(4H)-one]	≥ 70
O=C1COc2ccc(C3=C(c4ccc(F)cc4)C(=O)N(c4ccc(F)cc4)C3)cc2N1 [Example 70, 6-(1,4-Bis(4-fluorophenyl)-5-oxo-2,5-dihydro-1H-pyrrol-3-yl)-2H-benzo[b][1,4]oxazin-3(4H)-one]	≥ 70
CS(=O)(=O)N1CC(c2ccccc2)C(c2ccc3c(c2)NC(=O)CO3)=N1 (stereo not shown) [Example 59, 6-(1-(Methylsulfonyl)-4-phenyl-4,5-dihydro-1H-pyrazol-3-yl)-2H-benzo[b][1,4]oxazin-3(4H)-one]	≥ 70
O=C1COc2ccc(C3=C(c4ccc(F)cc4)C(=O)N(c4ccccc4)C3=O)cc2N1 [Example 65, 3-(4-fluorophenyl)-4-(3-oxo-3,4-dihydro-2H-benzo[b][1,4]oxazin-6-yl)-1-phenyl-1H-pyrrole-2,5-dione]	≥ 70
